The results in this text go back to US7700566B2, “Mosquito control method” (priority 2006, dated 2010).

This experiment has as its system Aedes albopictus (Asian Tiger Mosquito) larvae. The experiment is described as follows: Larval development of Aedes albopictus in sugar-containing aqueous environment. Type of experiment: in vivo. The note with it: single sugar. How it is done:
The combinations and ratios of sugars experimentally tested to date have been chosen to be generally equivalent to the combinations and ratios of sugars found in natural nectars. For example, a 5% tangerine nectar equivalent solution is created by dissolving approximately 6.2 grams of sucrose, approximately 1.9 grams of dextrose (glucose) and approximately 1.9 grams of fructose in 200 ml of water. This provides a solution that is approximately 3.1% sucrose, approximately 0.95% dextrose and approximately 0.95% fructose. A 5% strawberry nectar equivalent solution is created by dissolving approximately 0.7 grams of sucrose, approximately 5.3 grams of dextrose (glucose) and approximately 4.0 grams of fructose in 200 ml of water. This provides a solution that is approximately 0.35% sucrose, approximately 2.65% dextrose and approximately 2.0% fructose. A 5% white mangrove nectar equivalent solution is created by dissolving approximately 2.2 grams of sucrose, approximately 3.2 grams of dextrose (glucose) and approximately 4.6 grams of fructose in 200 ml of water. This provides a solution that is approximately 1.1% sucrose, approximately 01.6% dextrose and approximately 2.3% fructose. The three sugars sucrose, dextrose and fructose were also tested independently in 5% aqueous solutions. Lower concentrations of 0.5%, 1.0% and above of the nectar equivalent solutions and independent sugars were also prepared and tested.
In tests using Aedes albopictus (Asian Tiger Mosquito) or Aedes aegypti (Yellow Fever Mosquito) larvae, 5% solutions of each of the tangerine, strawberry and white mangrove nectar equivalent solutions were independently produced using either phosphate buffered saline or pure water in conjunction with the sugars to create the aqueous environments. Larvae were then introduced into the 5% solution aqueous environments in varying numbers. […] In a further test, liver powder was added to the various solutions above as a nutrient to spur larval development.

As for `O=C(CO)[C@@H](O)[C@H](O)[C@H](O)CO` [fructose], the “larvae emerged as adults” value (0.5% solution) was determined as 100%. The “larval development past the second instar stage” value (5% solution) is recorded as “no larvae developed past the second instar stage”.
Turning to `OC[C@H]1O[C@@](CO)(O[C@H]2O[C@H](CO)[C@@H](O)[C@H](O)[C@H]2O)[C@@H](O)[C@@H]1O` [sucrose], the “larvae emerged as adults” value was determined as 77% (0.5% solution) and 13% (5% solution).
